Values joined by “and” are separate entries in the source; they are usually repeats but may differ in a detail not shown here. Equal entries are not always repeated. “Also recorded” adds a separate entry of the source.
Assays:
[1] = system: various tumour cell types; details: arresting cell growth at GO/GI phase; Fishman et al, 2000a; cited from earlier work
[2] = Repeat dose study: plasma pharmacokinetics on Days 1 and 7 of 12-hourly oral dosing; type: in vivo, human
Description: (§1) Two clinical studies were carried out: a single dose study and a repeat dose study. Both studies were parallel-group, double-blind, dose-rising, and placebo-controlled in design.
(§2) In each group, 1 subject received placebo. […] In each group, 2 subjects received placebo.
(§3) Healthy young men, aged 18-45 years.
(§4) In the repeated dose study, an aqueous 0.5% methylcellulose suspension (Methocel A4M Premium, The Dow Chemical Company) was used. In both studies, the study medication was taken orally as a drink, followed by 50 ml of tap water.
(§5) The following procedures were done: • Safety assesment: laboratory assessments (routine biochemistry and urinalysis), physical examination, 12-lead ECO, ambulatory ECG, pulmonary function testing (FEV1), vital signs (semi-recumbent in the single dose study; semi-recumbent and standing in the repeat dose study).
(§6) Plasma samples were assayed for IB-MECA using LC/MS/MS. The lower limit of quantification (LLOQ) was 0.1 ng/mL. Intra-assay coefficients of variation (CV) were <5.0% and inter-assay CVs were <9.4%.
(§7) Maximum concentration (Cmax) and time to maximum concentration (tmax) were observed values. Other pharmacokinetic parameters (half-life, to AUC; and clearance, CL/F) were calculated by non-compartmental methods using WinNonlin® software (version 3.0, Pharsight, Mountain View, Calif., US). Accumulation indices of Cmax and AUC were calculated as ratio of values at steady state (Day 7) to the values on Day 1.

[3] = Single dose study: safety and tolerability; type: in vivo, human; details: for safety and tolerability: single (daily) oral dose up to 5 mg
Description: as §1, §2, §3, §4, §5
(§8) Data from all subjects who received IB-MECA were included in the analysis of safety and tolerability (adverse events and laboratory safety variables). Numerical data and parameters were summarised using means or medians, and other descriptive statistics, according to the type and distribution of the data.

[4] = Repeat dose study: safety and tolerability; type: in vivo, human; details: for safety and tolerability: twice daily (12-hourly) oral dose up to 4 mg
Description: as §1, §2, §3, §4, §5, §8

[5] = Single dose study: plasma pharmacokinetics after a single oral dose; type: in vivo, human; details: for AUC(0-48): mean (SD)
Description: as §1, §2, §3, §4, §5, §6, §7

neutrophils = details: cited from earlier work
Water solubility = type: physicochemical
[6] = system: syngeneic (melanoma, colon carcinoma) and xenograft (colon and prostate carcinoma) mouse models; details: cited from earlier work
[7] = 2 mg oral every 12 h, Day 1, mean (SD), n = 5
[8] = 2 mg oral every 12 h, Day 7, mean (SD), n = 5
[9] = 3 mg oral every 12 h, Day 1, mean (SD), n = 5
[10] = 3 mg oral every 12 h, Day 7, mean (SD), n = 5
[11] = 4 mg oral every 12 h, Day 1, mean (SD), n = 5
[12] = 4 mg oral every 12 h, Day 7, mean (SD), n = 5
[13] = 5 mg oral every 12 h, Day 1, mean (SD), n = 5
[14] = 5 mg oral every 12 h, Day 7, mean (SD), n = 5

CNC(=O)[C@H]1O[C@@H](n2cnc3c(NCc4cccc(I)c4)ncnc32)[C@H](O)[C@@H]1O [IB-MECA, methyl 1-[N6-(3-iodobenzyl)-adenin-9-yl]-β-D-ibofuronamide]
effect on tumour cell growth [1]: cytostatic effect
AUC(0-12) [2, 7]: 155.2 (39.1) ng · h/mL
AUC(inf) [2, 7]: 207.4 (52.0) ng · h/mL
tmax ([2]; 2 mg oral every 12 h, Day 1, median (range), n = 5): 2 (1-4) h
AUC(0-12) [2, 8]: 242.4 (41.4) ng · h/mL
AUC(0-24) [2, 8]: 346.3 (64.0) ng · h/mL
tmax ([2]; 2 mg oral every 12 h, Day 7, median (range), n = 5): 2 (1-2) h
AUC(0-12) [2, 9]: 304.5 (19.5) ng · h/mL
AUC(inf) [2, 9]: 423.5 (27.5) ng · h/mL
tmax ([2]; 3 mg oral every 12 h, Day 1, median (range), n = 5): 2 (1-2) h
AUC(0-12) [2, 10]: 341.6 (38.1) ng · h/mL
AUC(0-24) [2, 10]: 512.1 (74.1) ng · h/mL
tmax ([2]; 3 mg oral every 12 h, Day 7, median (range), n = 5): 1 (1-2) h
AUC(0-12) [2, 11]: 297.0 (57.2) ng · h/mL
AUC(inf) [2, 11]: 400.2 (85.7) ng · h/mL
tmax ([2]; 4 mg oral every 12 h, Day 1, median (range), n = 5): 2 (1-2) h
AUC(0-12) [2, 12]: 458.3 (54.8) ng · h/mL
AUC(0-24) [2, 12]: 640.3 (73.7) ng · h/mL
tmax ([2]; 4 mg oral every 12 h, Day 7, median (range), n = 5): 1 (1-2) h
AUC(0-12) [2, 13]: 461.6 (157.4) ng · h/mL
AUC(inf) [2, 13]: 596.1 (196.6) ng · h/mL
tmax ([2]; 5 mg oral every 12 h, Day 1, median (range), n = 5): 2 (1-2) h
AUC(0-12) [2, 14]: 601.0 (163.6) ng · h/mL
AUC(0-24) [2, 14]: 818.4 (214.0) ng · h/mL
tmax ([2]; 5 mg oral every 12 h, Day 7, median (range), n = 5): 2 (2-2) h
dose proportionality of plasma concentrations ([2]; Day 1 and steady state (Day 7)): dose proportional
tmax ([2]; repeated oral doses 2-5 mg every 12 h, overall): 1 to 2 h
time at which steady state was reached ([2]; repeated oral doses every 12 h): ≤ 3 days
change of pharmacokinetics after repeated dosing ([2]; repeated oral doses every 12 h for 7 days): did not change
Half-life at steady state ([2]; repeated oral doses, Day 7, independent of dose): 9 to 10 h
apparent plasma clearance (CL/F) ([2]; repeated oral doses, independent of dose): 5 to 10 L/h
blood level correlated with side effects ([3]; healthy adults, oral dosing): exceeding 160 nM and > 80 ng/ml
safety and tolerability [3]: safe and well tolerated
safety and tolerability ([3]; listed as 13-MCA): well tolerated
side effects ([3]; single daily oral dose 10 mg): some cardiovascular-related side effects
change in resting heart rate ([3]; single dose 5 mg, four subjects): small increase
adverse events within 12 h of dosing (number) ([3]; single dose of 10 mg): 8
safety tests of blood and urine ([3]; single dose study): no clinically significant changes
change in blood pressure ([3]; single dose study, not measured standing): In no subject was there a significant change
adverse events ([4]; 5 mg oral twice daily): some cardiovascular-related adverse events; also recorded: headache and drowsiness were most common
safety tests of blood and urine ([4]; repeat dose study): no clinically significant changes
heart rate ([4]; repeat dose study, Day 1): dose-related increase
heart rate effect ([4]; repeat dose study, Day 7 versus Day 1): clearly smaller
adverse events within 12 h of dosing (number) ([4]; repeated doses of 5 mg 12-hourly): 13
adverse events within 12 h of dosing (number) ([4]; repeated doses of up to 4 mg 12-hourly): 2
safety and tolerability [4]: safe and well tolerated
safety and tolerability ([4]; listed as 13-MCA): well tolerated
maximum tolerated dose ([4]; twice-daily therapeutic regimen): 4 mg
plasma level (Cmax) at safe doses ([5]; single daily dose of 5 mg and twice daily dose of 4 mg): < 80 ng/mL
AUC(0-48) ([5]; single oral dose 1 mg, n = 4): 220.7 ng·h/mL
tmax ([5]; single oral dose 1 mg, median (range), n = 4): 1 (1-2) h
AUC(0-48) ([5]; single oral dose 5 mg, n = 4): 872.3 ng·h/mL
tmax ([5]; single oral dose 5 mg, median (range), n = 4): 1 (1-2) h
AUC(0-48) ([5]; single oral dose 10 mg, n = 4): 1780.0 ng·h/mL
tmax ([5]; single oral dose 10 mg, median (range), n = 4): 1 (1-2) h
inter-subject variability ([5]; single oral doses): low
pharmacokinetics (linearity) ([5]; single oral doses 1, 5, 10 mg): linear
tmax ([5]; single oral doses 1, 5, 10 mg, overall range): 1 to 2 h
apparent plasma clearance (CL/F) ([5]; single oral doses, independent of dose): 47 L/h
myelotoxicity (neutrophils; administered with chemotherapy): protects against myelotoxicity
neutrophil recovery (neutrophils; oral administration, after cytotoxic drug therapy): stimulates neutrophil recovery
production of neutrophils (neutrophils; oral, mice, via an increase in G-CSF): stimulates the production of neutrophils
water solubility (Water solubility): not water soluble
colon carcinoma growth ([6]; oral administration, nude mice): inhibits colon carcinoma growth
development of tumours ([6]; orally administered, syngeneic and xenograft mouse models): inhibits the development of tumours

— patent US20050101560A1, “Method of treating an individual with methyl 1-[N6-(3-iodobenzyl)-adenin-9-yl] beta-D-ibofuronamide” (CAN-FITE BIOPHARMA LTD., priority 2003, published 2005)
